Data as given in ChEMBL document CHEMBL3045253, “Synthesis and in vitro antiproliferative activity of diphenyl(sulphonylpiperidin-4-yl)methanol derivatives” (Med Chem Res, 2010).

Tests used:
[1] = Cytotoxicity against Homo sapiens (human) NF103 cells assessed as survival at 100 uM after 24 hr by MTT assay relative to control; format: cell-based; conditions: read-out: Survival
HeLa = assay: Cytotoxicity against Homo sapiens (human) HeLa cells assessed as survival at 100 uM after 24 hr by MTT assay relative to control; format: functional; conditions: read-out: Survival
HepG2 = assay: Cytotoxicity against Homo sapiens (human) HepG2 cells assessed as survival at 100 uM after 24 hr by MTT assay relative to control; format: functional; conditions: HepG2, 24 h, read-out: Survival
HT-29 = assay: Cytotoxicity against Homo sapiens (human) HT-29 cells assessed as survival at 100 uM after 24 hr by MTT assay relative to control; format: functional; conditions: HT-29, 24 h, read-out: Survival
MCF7 = assay: Cytotoxicity against Homo sapiens (human) MCF7 cells assessed as survival at 100 uM after 24 hr by MTT assay relative to control; format: functional; conditions: MCF7, 24 h, read-out: Survival

| SMILES | viability at 24 h, 100 µM [1] [%] | viability at 100 µM (HeLa) [%] | viability at 100 µM (HepG2) [%] | viability at 100 µM (HT-29) [%] | viability at 100 µM (MCF7) [%] |
| --- | --- | --- | --- | --- | --- |
| O=S(=O)(c1ccc(Cl)cc1)N1CCC(C(O)(c2ccccc2)c2ccccc2)CC1 | 53 | 49.7 | 52.2 | 69.6 | 61.4 |
| O=[N+]([O-])c1ccccc1S(=O)(=O)N1CCC(C(O)(c2ccccc2)c2ccccc2)CC1 | 63.4 | 64.3 | 57.2 | 78.5 | 73.8 |
| O=[N+]([O-])c1cccc(S(=O)(=O)N2CCC(C(O)(c3ccccc3)c3ccccc3)CC2)c1 | 57.4 | 70.3 | 64.2 | 75 | 63.4 |
| O=[N+]([O-])c1ccc(S(=O)(=O)N2CCC(C(O)(c3ccccc3)c3ccccc3)CC2)cc1 | 53.6 | 54 | 68.7 | 70.8 | 69.8 |
| Cc1ccc(S(=O)(=O)N2CCC(C(O)(c3ccccc3)c3ccccc3)CC2)cc1 | 65.6 | 71.2 | 62.7 | 45.1 | 70.2 |
| Cc1noc(C)c1S(=O)(=O)N1CCC(C(O)(c2ccccc2)c2ccccc2)CC1 | 53.8 | 39.9 | 52.2 | 73.6 | 38.7 |
| CS(=O)(=O)N1CCC(C(O)(c2ccccc2)c2ccccc2)CC1 | 64 | 64.4 | 60.9 | 74.7 | 60.5 |
| O=S(=O)(c1ccccc1)N1CCC(C(O)(c2ccccc2)c2ccccc2)CC1 | 63 | 68.3 | 68.3 | 73.9 | 65.8 |
| CCCc1ccc(S(=O)(=O)N2CCC(C(O)(c3ccccc3)c3ccccc3)CC2)cc1 | 60 | 73.1 | 62.6 | 74.2 | 68.7 |
| CC(C)S(=O)(=O)N1CCC(C(O)(c2ccccc2)c2ccccc2)CC1 | 60 | 78.5 | 64.7 | 77.6 | 70.5 |
| O=S(=O)(c1ccc(Cl)cc1F)N1CCC(C(O)(c2ccccc2)c2ccccc2)CC1 | 51.8 | 39.2 | 46.3 | 47.2 | 44.2 |
| O=S(=O)(CCl)N1CCC(C(O)(c2ccccc2)c2ccccc2)CC1 | 53.5 | 56.1 | 59.1 | 45.2 | 66 |
| O=S(=O)(Cc1ccccc1)N1CCC(C(O)(c2ccccc2)c2ccccc2)CC1 | 59.8 | 70.1 | 39.1 | 76.5 | 69.7 |
